Key:
Format in all cases: binding
Details in all cases: 15 minutes reaction time point
[1] = target: T1, GppNHp-loaded KRAS4b (amino acids 1-169) G12C/C118S protein (Homo sapiens, UniProt P01116, C118S/G12C); experiment: Covalent cysteine 12 modification by MALDI-TOF MS, GppNHp-loaded KRAS G12C
T1 construct: KRAS4b (amino acids 1-169) G12C/C118S protein; made in house
Summary of the method: (§1)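 1 μM GppNHp-, GTP- or GDP-loaded KRAS4b (1-169) G12C/C118S in 20 mM HEPES, 150 mM NaCl, 1 mM MgCl2, pH 7.3, at 1:2.5 protein:compound, room temperature in the dark. Percent Cys12 modification from MALDI-TOF peak heights (adduct/total protein), reported at 15 min.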

[2] = target: T2, GTP-loaded KRAS4b (amino acids 1-169) G12C/C118S protein (Homo sapiens, UniProt P01116, C118S/G12C); experiment: Covalent cysteine 12 modification by MALDI-TOF MS, GTP-loaded KRAS G12C
T2 construct: KRAS4b (amino acids 1-169) G12C/C118S protein; made in house
Summary of the method: as §1

[3] = target: T3, GDP-loaded KRAS4b (amino acids 1-169) G12C/C118S protein (Homo sapiens, UniProt P01116, C118S/G12C); experiment: Covalent cysteine 12 modification by MALDI-TOF MS, GDP-loaded KRAS G12C
T3 construct: KRAS4b (amino acids 1-169) G12C/C118S protein; made in house
Summary of the method: as §1

Row | GppNHp-KRAS G12C percent of modification [1] | GTP-KRAS G12C percent of modification [2] | GDP-KRAS G12C percent of modification [3] | SMILES
1 | C (10%≤percent of modification <50%) | C (10%≤percent of modification <50%) | A (percent of modification ≥70%) | C=CC(=O)N1C[C@H](N(C)c2nc(OC[C@@]34CCCN3C[C@H](F)C4)nc3cc(-c4ccc(F)c5sc(N)c(C#N)c45)c(F)cc23)C[C@@H]1C [Compound 109]
2 | A (percent of modification ≥70%) | A (percent of modification ≥70%) | A (percent of modification ≥70%) | C=CC(=O)N1CC[C@@H](N(CC)c2nc(OC[C@@H]3CCCN3C)nc3cc(-c4ccc(F)c5sc(N)c(C#N)c45)c(F)cc23)[C@H]1C [Compound 138]
3 | A (percent of modification ≥70%) | A (percent of modification ≥70%) | A (percent of modification ≥70%) | C=CC(=O)N1CC[C@@H](N(CC)c2nc(OC[C@@H]3C[C@@H](F)CN3C)nc3cc(-c4ccc(F)c5sc(N)c(C#N)c45)c(F)cc23)[C@H]1C [Compound 139]
4 | A (percent of modification ≥70%) | A (percent of modification ≥70%) | A (percent of modification ≥70%) | C=CC(=O)N1CC[C@@H](N(CC)c2nc(OC[C@@H]3C[C@@H](OC)CN3C)nc3cc(-c4ccc(F)c5sc(N)c(C#N)c45)c(F)cc23)[C@H]1C [Compound 140]
5 | A (percent of modification ≥70%) | A (percent of modification ≥70%) | A (percent of modification ≥70%) | C=CC(=O)N1CC[C@@H](N(CC)c2nc(OC[C@@H]3CCCN3C)nc3c(F)c(-c4ccc(F)c5sc(N)c(C#N)c45)ccc23)[C@H]1C [Compound 141]
6 | A (percent of modification ≥70%) | A (percent of modification ≥70%) | A (percent of modification ≥70%) | C=CC(=O)N1CC[C@@H](N(CC)c2nc(OC[C@@H]3C[C@@H](F)CN3C)nc3c(F)c(-c4ccc(F)c5sc(N)c(C#N)c45)ccc23)[C@H]1C [Compound 142]
7 | A (percent of modification ≥70%) | A (percent of modification ≥70%) | A (percent of modification ≥70%) | C=CC(=O)N1C[C@H](N(C)c2nc(OC[C@@H]3CCCN3C)nc3c(F)c(-c4ccc(F)c5sc(N)c(C#N)c45)c(C(F)(F)F)cc23)C[C@H]1C [Compound 147]
8 | A (percent of modification ≥70%) | A (percent of modification ≥70%) | A (percent of modification ≥70%) | C=CC(=O)N1C[C@H](N(C)c2nc(OC[C@@]34CCCN3C[C@H](F)C4)nc3cc(-c4ccc(F)c5sc(N)c(C#N)c45)c(F)cc23)C[C@H]1C [Compound 148]
9 | A (percent of modification ≥70%) | A (percent of modification ≥70%) | A (percent of modification ≥70%) | C=CC(=O)N1CC[C@@H](N(CC)c2nc(OC[C@@]34CCCN3C[C@H](OC)C4)nc3cc(-c4ccc(F)c5sc(N)c(C#N)c45)c(F)cc23)[C@H]1C [Compound 149]
10 | A (percent of modification ≥70%) | A (percent of modification ≥70%) | A (percent of modification ≥70%) | C=CC(=O)N1C[C@H](N(C)c2nc(OC[C@@H]3CCCN3C)nc3c(F)c(-c4ccc(F)c5sc(N)c(C#N)c45)c(C(F)(F)F)cc23)C[C@@H]1C [Compound 153]

Further lines, the compound ahead of its results:

Row | SMILES | GppNHp-KRAS G12C percent of modification [1] | GTP-KRAS G12C percent of modification [2] | GDP-KRAS G12C percent of modification [3]
11 | C=CC(=O)N1CC[C@@H](N(C)c2nc(OC[C@@H]3C[C@@H](OC)CN3CC)nc3c(F)c(-c4ccc(F)c5sc(N)c(C#N)c45)c(C(F)(F)F)cc23)[C@@H]1C [Compound 101] | A (percent of modification ≥70%) | B (50≤percent of modification <70%) | A (percent of modification ≥70%)
12 | C=CC(=O)N1CC[C@@H](N(C)c2nc(OC[C@@H]3C[C@@H](OC)CN3CC)nc3c(F)c(-c4ccc(F)c5sc(N)c(C#N)c45)c(C(F)(F)F)cc23)[C@H]1C [Compound 104] | A (percent of modification ≥70%) | A (percent of modification ≥70%) | A (percent of modification ≥70%)
13 | C=CC(=O)N1CC[C@@H](N(C)c2nc(OC[C@@H]3C[C@@H](F)CN3CC)nc3c(F)c(-c4ccc(F)c5sc(N)c(C#N)c45)c(Cl)cc23)[C@@H]1C [Compound 105] | A (percent of modification ≥70%) | C (10%≤percent of modification <50%) | B (50≤percent of modification <70%)
14 | C=CC(=O)N1CCN(c2nc(OC[C@@]34CCCN3C[C@H](F)C4)nc3c(F)c(-c4ccc(F)c5sc(N)c(C#N)c45)c(C(F)(F)F)cc23)C2CC21 (stereo partly drawn) [Compound 106] | A (percent of modification ≥70%) | C (10%≤percent of modification <50%) | A (percent of modification ≥70%)
15 | C=CC(=O)N1CC[C@@H](N(C)c2nc(OC[C@@H]3C[C@@H](F)CN3CC)nc3c(F)c(-c4ccc(F)c5sc(N)c(C#N)c45)c(C(F)(F)F)cc23)[C@H]1C [Compound 107] | A (percent of modification ≥70%) | A (percent of modification ≥70%) | A (percent of modification ≥70%)
16 | C=CC(=O)N1C[C@H](N(C)c2nc(OC[C@@]34CCCN3C[C@H](F)C4)nc3c(F)c(-c4ccc(F)c5sc(N)c(C#N)c45)c(C(F)(F)F)cc23)C[C@@H]1C [Compound 108] | A (percent of modification ≥70%) | B (50≤percent of modification <70%) | B (50≤percent of modification <70%)
17 | C=CC(=O)N1CC[C@@H](N(C)c2nc(OC[C@@]34CCCN3C[C@H](F)C4)nc3cc(-c4nc(N)cc(C)c4C(F)(F)F)c(F)cc23)[C@H]1C [Compound 110] | A (percent of modification ≥70%) | B (50≤percent of modification <70%) | A (percent of modification ≥70%)
18 | C=CC(=O)N1CC[C@@H](N(C)c2nc(OC[C@@H]3CC4(CC4)CN3C)nc3c(F)c(-c4ccc(F)c5sc(N)c(C#N)c45)c(C(F)(F)F)cc23)[C@@H]1C [Compound 112] | D (percent of modification <10%) | D (percent of modification <10%) | D (percent of modification <10%)
19 | C=CC(=O)N1CC[C@@H](N(C)c2nc(OC[C@@]34CCCN3C[C@H](F)C4)nc3c(F)c(-c4nc(N)cc(C)c4C(F)(F)F)ccc23)[C@H]1C [Compound 115] | A (percent of modification ≥70%) | A (percent of modification ≥70%) | A (percent of modification ≥70%)
20 | C=CC(=O)N1CC[C@@H](N(C)c2nc(OC[C@@H]3CCCN3C)nc3c(F)c(-c4nc(N)cc(C)c4C(F)(F)F)c(C(F)(F)F)cc23)[C@H]1C [Compound 122] | A (percent of modification ≥70%) | B (50≤percent of modification <70%) | A (percent of modification ≥70%)
21 | C=CC(=O)N1CC[C@@H](N(C)c2nc(OC[C@@H]3C[C@@H](F)CN3CC)nc3c(F)c(-c4ccc(F)c5sc(N)c(C#N)c45)c(C(F)(F)F)cc23)[C@@H]1C [Compound 144] | C (10%≤percent of modification <50%) | C (10%≤percent of modification <50%) | C (10%≤percent of modification <50%)
22 | C=CC(=O)N1CC[C@@H](N(C)c2nc(OC[C@@H]3C[C@@H](F)CN3C)nc3c(F)c(-c4nc(N)cc(C)c4C(F)(F)F)c(C(F)(F)F)cc23)[C@H]1C [Compound 145] | B (50≤percent of modification <70%) | C (10%≤percent of modification <50%) | A (percent of modification ≥70%)
23 | C=CC(=O)N1CC[C@@H](N(CC)c2nc(OC[C@@]34CCCN3C[C@H](OC)C4)nc3c(F)c(-c4ccc(F)c5sc(N)c(C#N)c45)c(C(F)(F)F)cc23)[C@H]1C [Compound 150] | A (percent of modification ≥70%) | A (percent of modification ≥70%) | A (percent of modification ≥70%)
24 | C=CC(=O)N1CC[C@@H](N(CC)c2nc(OC[C@@H]3CCCN3C)nc3c(F)c(-c4nc(N)cc(C)c4C(F)(F)F)c(C(F)(F)F)cc23)[C@H]1C [Compound 155] | C (10%≤percent of modification <50%) | C (10%≤percent of modification <50%) | C (10%≤percent of modification <50%)
25 | C=CC(=O)N1CC[C@@H](N(C)c2nc(OC[C@]34CCCN3C[C@H](OC)C4)nc3c(F)c(-c4ccc(F)c5sc(N)c(C#N)c45)c(C(F)(F)F)cc23)[C@H]1C [Compound 156] | A (percent of modification ≥70%) | A (percent of modification ≥70%) | A (percent of modification ≥70%)
